Experimental data reported in paper PMC11363342 (ACS Central Science, 2024).

Tested on: SARS-CoV-2
Assay: Viral load reduction assay in Calu-3 cells, extracellular viral RNA copies by RT-qPCR
Assay type: cell-based
Settings: Calu-3, MOI 1, 16 hpi
Procedure: Cells were pretreated with 11 and infected with SARS-CoV-2 at a multiplicity of infection (MOI) of 1. At 16 h postinfection (hpi) supernatant was harvested to quantify the infectious virus titer by plaque assay and extracellular viral RNA copies by RT-qPCR. […] This is in line with the expected mechanism of action of the compound that involves viral (structural) protein maturation, likely resulting in reduced infectivity of progeny virus. We then calculated the specific infectivity (defined as the number of infectious particles per viral RNA copy) of treated and untreated samples for the data in Figure 3A,B (Figure 3C). […] None of the treatments caused noticeable cytotoxicity in uninfected treated cells (Figure 3B). Similarly, treatment of infected Calu-3 lung epithelial cells with 11 reduced infectious progeny virus titers by ∼10-fold, while no reduction in extracellular viral RNA copies was observed (Figure S3).
Figure S2: Cytopathic effect reduction assays on Vero E6 monkey kidney cells and H1299/ACE2 human lung epithelial cells. […]
plaque assay and RT-qPCR, respectively. Uninfected compound-treated cells were assessed by MTS assay in parallel to measure cytotoxicity of the compounds. n=3 independent experiments. […]

Structure (SMILES): O=S1(=O)O[C@@H]2[C@H](O)[C@@H](O)[C@H](O)[C@@H](CO)[C@@H]2O1 [Compound 11, 1,6-epi-cyclophellitol cyclosulfate]
- extracellular viral RNA copies (in words): no reduction
